Experimental data taken from patent US7674613B2, “Live bacterium preparation containing lactic acid bacterium as active ingredient and food containing lactic acid bacterium” (Frente International Co., Ltd., priority 2002, dated 2010).

How the values were obtained:
[1] = tested on: Streptococcus mutans MT 8148 strain; experiment: Test Example 4: number of viable S. mutans with oligosaccharides and sugar alcohols, with or without L. salivarius TI 2711; assay type: cell-based; details: 5% addition, aerobic 37° C. 24 hours
Method: (§1) 5% each of xylitol, erythritol and sorbitol as sugar alcohols, and fructo-oligosaccharide and kestose as oligosaccharides were each added to a liquid medium consisting of GAM bouillon (Nissui) as a base medium and containing 0.7% glucose and 3% sucrose, and each medium was inoculated with 1×10^7 CFU/ml of the Streptococcus mutans MT 8148 strain. Then, aerobic culture was performed at 37° C. for 24 hours.
(§2) On the other hand, 1×10^7 CFU/ml of the Streptococcus mutans MT 8148 strain was inoculated to the aforementioned medium containing 5% of each sugar alcohol or oligosaccharide, and 1×10^7 CFU/ml of the Lactobacillus salivarius TI 2711 strain was further inoculated to the medium. Then, aerobic culture was similarly performed at 37° C. for 24 hours. After completion of the culture, the cell numbers of Streptococcus mutans MT 8148 strain and amounts of insoluble glucan were determined (according to the methods described in Test Example 1) for the both types of culture.

[2] = tested on: Streptococcus mutans MT 8148 strain; experiment: Test Example 4: insoluble glucan production by S. mutans with oligosaccharides and sugar alcohols, with or without L. salivarius TI 2711; assay type: cell-based
Method: as §1, §2

[3] = With inoculation of L. salivarius TI 2711 1×10^7 CFU/ml
[4] = Without inoculation of L. salivarius, control base medium 4.0 × 10^5

OC[C@@H](O)[C@@H](O)CO [Erythritol, erythritol]
Number of viable cells of S. mutans (CFU/ml) [1, 3]: 1.0 × 10^4 CFU/ml | Number of viable cells of S. mutans (CFU/ml) [1, 4]: 1.0 × 10^5 CFU/ml | inhibition of the production of insoluble glucan ([2]; erythritol alone, 5% addition): about 60% | inhibition of the production of insoluble glucan ([2]; mixed culture inoculated with Lactobacillus salivarius TI 2711 strain, amount without inoculation taken as 100%): 90%

OC[C@H]1O[C@@](CO)(OC[C@@]2(O[C@H]3O[C@H](CO)[C@@H](O)[C@H](O)[C@H]3O)O[C@H](CO)[C@@H](O)[C@@H]2O)[C@@H](O)[C@@H]1O [Kestose, kestose]
Number of viable cells of S. mutans (CFU/ml) [1, 3]: 2.0 × 10^5 CFU/ml | Number of viable cells of S. mutans (CFU/ml) [1, 4]: 5.0 × 10^5 CFU/ml

OC[C@@H](O)[C@@H](O)[C@H](O)[C@@H](O)CO [Sorbitol, sorbitol]
Number of viable cells of S. mutans (CFU/ml) [1, 3]: 3.0 × 10^5 CFU/ml | Number of viable cells of S. mutans (CFU/ml) [1, 4]: 4.0 × 10^5 CFU/ml

OC[C@@H](O)[C@H](O)[C@@H](O)CO [Xylitol, xylitol]
Number of viable cells of S. mutans (CFU/ml) [1, 3]: 5.0 × 10^5 CFU/ml | Number of viable cells of S. mutans (CFU/ml) [1, 4]: 4.0 × 10^5 CFU/ml
